A short description of data set [1]: xn = mol fraction of the nth substance listed. Particulars: 93.2 kPa, Liquid, Vibrating tube method, x1 = 1.
The conditions of data set [2]: 93.2 kPa, Liquid, Vibrating tube method.

Numbers after ± are expanded uncertainties.

As to `CC#N` [acetonitrile] + CCN(CC)CC, the mass density came out at 782.01 ± 2 kg/m3 in data set [1] (293.15 K), 776.61 ± 2 kg/m3 in data set [1] (298.15 K), 771.2 ± 2 kg/m3 in data set [1] (303.15 K) and 765.75 ± 2 kg/m3 in data set [1] (308.15 K).

For `CC(C)(C)N` [2-methyl-2-propanamine], the mass density in data set [2] (293.15 K) is reported as 692.06 ± 2 kg/m3; in data set [2] (298.15 K), 686.65 ± 2 kg/m3; in data set [2] (303.15 K), 681.18 ± 2 kg/m3; in data set [2] (308.15 K) it was 675.66 ± 2 kg/m3.

For the compound `CCCN` [propan-1-amine], the mass density in data set [2] (293.15 K) came to 716.48 ± 2 kg/m3; in data set [2] (298.15 K) it was 711.21 ± 2 kg/m3; in data set [2] (303.15 K) it was 705.88 ± 2 kg/m3; in data set [2] (308.15 K), 700.62 ± 2 kg/m3.

Turning to `CCCCN` [1-butanamine], the mass density in data set [2] (293.15 K) came to 737.12 ± 2 kg/m3; in data set [2] (298.15 K), 732.33 ± 2 kg/m3; in data set [2] (303.15 K), 727.51 ± 2 kg/m3; in data set [2] (308.15 K) it was 722.66 ± 2 kg/m3.

Turning to `CC#N` [acetonitrile], the mass density in data set [2] (293.15 K) is reported as 782.01 ± 2 kg/m3; in data set [2] (298.15 K), 776.61 ± 2 kg/m3; in data set [2] (303.15 K), 771.2 ± 2 kg/m3; in data set [2] (308.15 K), 765.75 ± 2 kg/m3.

On to `CC#N` [acetonitrile] + CCCN, for which the mass density in data set [1] (293.15 K) came out at 782.01 ± 2 kg/m3; in data set [1] (298.15 K) it was 776.61 ± 2 kg/m3; in data set [1] (303.15 K) it was 771.2 ± 2 kg/m3; in data set [1] (308.15 K), 765.75 ± 2 kg/m3.

For `CCN(CC)CC` [triethylamine], the mass density in data set [2] (293.15 K) stood at 727.7 ± 2 kg/m3; in data set [2] (298.15 K), 723.02 ± 2 kg/m3; in data set [2] (303.15 K), 718.36 ± 2 kg/m3; in data set [2] (308.15 K) it was 713.65 ± 2 kg/m3.

With `CCCCNCCCC` [dibutylamine], the mass density in data set [2] (293.15 K) was 759.7 ± 2 kg/m3; in data set [2] (298.15 K), 755.61 ± 2 kg/m3; in data set [2] (303.15 K), 751.5 ± 2 kg/m3; in data set [2] (308.15 K), 747.38 ± 2 kg/m3.

For the compound `CC#N` [acetonitrile] + CC(C)(C)N, the mass density in data set [1] (293.15 K) is 782.01 ± 2 kg/m3; in data set [1] (298.15 K), 776.61 ± 2 kg/m3; in data set [1] (303.15 K), 771.2 ± 2 kg/m3; in data set [1] (308.15 K) it was 765.75 ± 2 kg/m3.

For `CC#N` [acetonitrile] + CCCNCCC, the mass density in data set [1] (293.15 K) came out at 782.01 ± 2 kg/m3; in data set [1] (298.15 K), 776.61 ± 2 kg/m3; in data set [1] (303.15 K), 771.2 ± 2 kg/m3; in data set [1] (308.15 K), 765.75 ± 2 kg/m3.

For the compound `CC#N` [acetonitrile] + CCCCN, the mass density is on record as 782.01 ± 2 kg/m3 in data set [1] (293.15 K), 776.61 ± 2 kg/m3 in data set [1] (298.15 K), 771.2 ± 2 kg/m3 in data set [1] (303.15 K) and 765.75 ± 2 kg/m3 in data set [1] (308.15 K).

As to `CCCNCCC` [dipropylamine], the mass density was 738.18 ± 2 kg/m3 in data set [2] (293.15 K), 733.64 ± 2 kg/m3 in data set [2] (298.15 K), 729.07 ± 2 kg/m3 in data set [2] (303.15 K) and 724.48 ± 2 kg/m3 in data set [2] (308.15 K).

For the compound `CC#N` [acetonitrile] + CCCCNCCCC, the mass density was determined as 782.01 ± 2 kg/m3 in data set [1] (293.15 K), 776.61 ± 2 kg/m3 in data set [1] (298.15 K), 771.2 ± 2 kg/m3 in data set [1] (303.15 K) and 765.75 ± 2 kg/m3 in data set [1] (308.15 K).

Values taken from the NIST ThermoML archive (doi:10.1016/j.jct.2015.09.002).
